Experimental data taken from US20150252051A1, “RETINOIC ACID RECEPTOR-RELATED ORPHAN RECEPTOR MODULATORS AND USES THEREOF” (INNOV17 LLC, priority 2014, published 2015).

Legend:
Assay type in all cases: cell-based
Conditions in all cases: 72 h; human CD4+ T cells under TH17-polarizing conditions, 3 days; supernatant ELISA
[1] = tested on: IL-17A; test: Human TH17 cytokine inhibition as measured by ELISA (IL-17A)
Method: (§1) Human TH17 Cytokine Inhibition as Measured by ELISA Peripheral blood mononuclear cells (PBMCs) were sourced from freshly prepared leukocyte enriched plasma (buffy coat) from healthy donors (New York Blood Center). PBMCs were isolated by density gradient centrifugation using Ficoll-Paque™ PLUS (GE Healthcare). Human CD4+ T cells were seeded into 96-well plates (5×10^4 cells/well) and activated with plate-bound anti-human (h)-CD3 antibody and soluble h-aCD28 (both at 1 ug/ml; eBioscience) and differentiated into TH17 cells with 20 ng/mL h-IL-6, 5 ng/mL h-TGF-β1, 10 ng/mL h-IL-23 (eBioscience) and 10 ng/mL IL-1β (Miltenyi Biotec) in serum-free TexMACS Medium (Miltenyi Biotec) supplemented with 1% Penicillin/Streptomycin (Lonza) for 3 days. CD4+ T cells propagated under TH17-polarizing conditions were cultured in the presence or absence of various concentrations of compounds with a final concentration of 0.1% DMSO. Supernatants were collected and stored at −20° C. until assayed for IL-17A, IL-17F and IL-21 levels by “Ready-Set-Go” ELISA kits (eBioscience) as per manufacturer's instructions. Endpoint absorbance was read at 450 nm using a microplate reader (Perkin Elmer).

[2] = tested on: IL-17F; test: Human TH17 cytokine inhibition as measured by ELISA (IL-17F)
Method: as §1

[3] = tested on: IL-21; test: Human TH17 cytokine inhibition as measured by ELISA (IL-21)
Method: as §1

Measured: IC50

O=C(c1ccccc1)N1C2CCC1C(CN1CCc3cc(-c4cn[nH]c4)ccc31)C2 (stereo not drawn) [Example 9, (2-((5-(1H-pyrazol-4-yl)-1H-indolin-1-yl)methyl)-7-azabicyclo[2.2.1]heptan-7-yl)(phenyl)methanone]
< 10 µM: all assays above

O=C(Cc1ccccc1)N1C2CCC1C(Cn1ccc3cc(-c4cn[nH]c4)ccc31)C2 (stereo not drawn) [Example 10, 1-(2-((5-(1H-pyrazol-4-yl)-1H-indol-1-yl)methyl)-7-azabicyclo[2.2.1]heptan-7-yl)-2-phenylethanone]
< 10 µM: all assays above

O=C(CCc1ccccc1)N1C2CCC1C(Cn1ccc3cc(-c4cn[nH]c4)ccc31)C2 (stereo not drawn) [Example 11, 1-(2-((5-(1H-pyrazol-4-yl)-1H-indol-1-yl)methyl)-7-azabicyclo[2.2.1]heptan-7-yl)-3-phenylpropan-1-one]
< 10 µM: all assays above

O=C(C1CCCCC1)N1C2CCC1C(Cn1ccc3cc(-c4cn[nH]c4)ccc31)C2 (stereo not drawn) [Example 12, (2-((5-(1H-pyrazol-4-yl)-1H-indol-1-yl)methyl)-7-azabicyclo[2.2.1]heptan-7-yl)(cyclohexyl)methanone]
< 10 µM: all assays above

O=C(CC1CCCCC1)N1C2CCC1C(Cn1ccc3cc(-c4cn[nH]c4)ccc31)C2 (stereo not drawn) [Example 13]
< 10 µM: all assays above

CC(C)CC(=O)N1C2CCC1C(Cn1ccc3cc(-c4cn[nH]c4)ccc31)C2 (stereo not drawn) [Example 14, 1-(2-((5-(1H-pyrazol-4-yl)-1H-indol-1-yl)methyl)-7-azabicyclo[2.2.1]heptan-7-yl)-3-methylbutan-1-one]
< 10 µM: all assays above

CC(C)C(=O)N1C2CCC1C(Cn1ccc3cc(-c4cn[nH]c4)ccc31)C2 (stereo not drawn) [Example 15, 1-(2-((5-(1H-pyrazol-4-yl)-1H-indol-1-yl)methyl)-7-azabicyclo[2.2.1]heptan-7-yl)-2-methylpropan-1-one]
< 10 µM: all assays above
